The text below walks through data of US20150164957A1, “CONVERSION OF CARDIOMYOCYTES INTO FAST CONDUCTING CARDIOMYOCYTES OR SLOW CONDUCTING NODAL CELLS” (The University of Chicago, priority 2012, published 2015).

Test [1] relates to Nav1.8. The settings on record: after administration of A-803467; cited from earlier work.
In test [2] the target is Nav1.8 (Homo sapiens, UniProt Q9Y5Y9). The following applies: at the dose used; cited from earlier work.
Test [3] deals with tamoxifen-treated Tbx5^minKCreERT2 and Tbx5^fl/fl mice. Nature of the test: Invasive EP studies (intracardiac recordings) following atropine administration. It counts as in vivo, mouse. The settings on record: for AH (AtrioHisian interval) / HV (Hisioventricular interval) / Hd (His interval duration) / SCL (sinus cycle length): Post-Atropine (20 mg/kg), Mean +/- SD. On the procedure:
Electrophysiology Studies. Electrophysiology studies were performed in collaboration with Fang Liu, Kurt Schillinger, and Vic Patel at The University of Pennsylvania. Detailed protocols for in vivo electrophysiology studies have been previously described (Liu, et al., 2008). 10-12 week old mice were anesthetized with pentobarbital (33 mg/kg ip) and a 1.1-Fr octapolar electrode catheter (Millar; EPR-800) was advanced via a right jugular venous cut-down to record right atrial, His bundle, right ventricular potentials and perform programmed electrical stimulation. For studies involving atropine, surface ECG and intracardiac recordings were obtained, then repeated after mice were injected with 20 mg/kg atropine.
The autonomic nervous system can play an important role in modulating cardiac conduction. Specifically, activation of the sympathetic nervous system can increase heart rate, contractility, and accelerate conduction through the AV node, while parasympathetic stimulation via the vagus nerve can act at the SA and AV nodes to decrease heart rate and slow AV conduction. To determine whether slowed conduction in Tbx5^minkCreERT2 mice was secondary to increased vagal tone, the inventors administered atropine, a cholinergic antagonist, to tamoxifen-treated Tbx5^minKCreERT2 and Tbx5^fl/fl mice and evaluated conduction intervals by EP studies.

For test [4], the system named is Mice with hyperactivation of Nav1.8. The following applies: cited from earlier work.

Chain of Nav1.8 (Homo sapiens, UniProt Q9Y5Y9) (Q9Y5Y9 whole entry): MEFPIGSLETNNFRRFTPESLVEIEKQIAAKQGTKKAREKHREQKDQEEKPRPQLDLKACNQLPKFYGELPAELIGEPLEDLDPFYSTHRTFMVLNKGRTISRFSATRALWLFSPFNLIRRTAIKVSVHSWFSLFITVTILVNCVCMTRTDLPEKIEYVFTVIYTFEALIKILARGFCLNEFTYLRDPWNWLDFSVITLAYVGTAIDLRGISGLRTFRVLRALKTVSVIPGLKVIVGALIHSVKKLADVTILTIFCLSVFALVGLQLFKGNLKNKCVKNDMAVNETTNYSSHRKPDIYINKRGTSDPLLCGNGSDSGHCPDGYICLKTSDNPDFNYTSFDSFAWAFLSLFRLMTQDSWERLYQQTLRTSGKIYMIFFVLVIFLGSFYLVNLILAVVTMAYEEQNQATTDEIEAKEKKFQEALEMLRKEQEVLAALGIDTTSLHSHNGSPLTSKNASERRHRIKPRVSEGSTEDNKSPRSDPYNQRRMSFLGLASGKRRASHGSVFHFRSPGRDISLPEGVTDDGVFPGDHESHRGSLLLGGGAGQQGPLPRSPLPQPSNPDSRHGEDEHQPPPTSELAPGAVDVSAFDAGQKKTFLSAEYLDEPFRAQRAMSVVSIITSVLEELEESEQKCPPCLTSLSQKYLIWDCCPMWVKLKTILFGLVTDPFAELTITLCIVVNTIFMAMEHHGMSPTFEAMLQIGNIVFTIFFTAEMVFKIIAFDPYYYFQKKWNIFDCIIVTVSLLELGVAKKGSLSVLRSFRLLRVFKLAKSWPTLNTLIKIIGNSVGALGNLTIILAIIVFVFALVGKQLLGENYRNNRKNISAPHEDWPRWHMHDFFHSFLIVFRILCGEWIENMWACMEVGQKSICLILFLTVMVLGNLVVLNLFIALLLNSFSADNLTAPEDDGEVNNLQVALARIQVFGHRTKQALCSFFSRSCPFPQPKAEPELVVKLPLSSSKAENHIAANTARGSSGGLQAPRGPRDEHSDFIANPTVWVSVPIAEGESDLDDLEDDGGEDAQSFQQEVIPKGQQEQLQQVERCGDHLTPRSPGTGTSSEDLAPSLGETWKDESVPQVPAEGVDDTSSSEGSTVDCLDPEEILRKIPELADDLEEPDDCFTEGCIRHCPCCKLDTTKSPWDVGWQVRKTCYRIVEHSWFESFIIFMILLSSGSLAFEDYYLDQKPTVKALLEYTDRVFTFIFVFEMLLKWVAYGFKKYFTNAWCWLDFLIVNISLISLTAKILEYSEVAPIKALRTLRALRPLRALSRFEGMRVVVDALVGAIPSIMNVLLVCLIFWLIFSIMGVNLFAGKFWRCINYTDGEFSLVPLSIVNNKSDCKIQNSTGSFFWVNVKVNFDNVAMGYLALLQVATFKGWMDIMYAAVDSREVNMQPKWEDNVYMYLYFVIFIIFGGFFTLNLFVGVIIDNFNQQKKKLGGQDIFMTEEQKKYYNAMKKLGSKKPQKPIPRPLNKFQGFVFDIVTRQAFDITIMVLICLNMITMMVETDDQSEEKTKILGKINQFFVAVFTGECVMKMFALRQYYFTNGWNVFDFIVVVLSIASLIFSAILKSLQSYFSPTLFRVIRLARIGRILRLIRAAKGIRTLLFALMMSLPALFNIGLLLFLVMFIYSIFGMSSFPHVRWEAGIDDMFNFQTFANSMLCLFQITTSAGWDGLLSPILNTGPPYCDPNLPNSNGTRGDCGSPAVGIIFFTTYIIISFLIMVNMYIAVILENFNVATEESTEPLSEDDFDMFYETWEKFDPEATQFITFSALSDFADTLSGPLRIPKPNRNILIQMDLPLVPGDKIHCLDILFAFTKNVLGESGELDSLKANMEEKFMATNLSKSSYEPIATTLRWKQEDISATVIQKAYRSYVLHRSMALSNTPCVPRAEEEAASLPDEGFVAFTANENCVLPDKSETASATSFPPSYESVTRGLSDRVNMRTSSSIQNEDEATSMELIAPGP

As to `COc1cc(NC(=O)c2ccc(-c3ccc(Cl)cc3)o2)cc(OC)c1` [A-803467], in the test on Nav1.8 [1], the H-V interval result is “increased”, the P-R interval result is on record as “increased” and the QRS interval result is listed as “increased”. For the same compound, the “Activity against Nav1.8 relative to Nav1.5” value on Nav1.8 [2] was 100 fold.
`CN1[C@@H]2CC[C@H]1C[C@@H](OC(=O)C(CO)c1ccccc1)C2` (some centres unmarked) [Atropine, atropine]: in test [3] (Tbx5^fl/fl mice (n = 3)), the “AH (AtrioHisian interval)” value is 28.0 ± 9.9 ms, the “HV (Hisioventricular interval)” value worked out at 9.0 ± 3.2 ms, the “Hd (His interval duration)” value worked out at 3.7 ± 1.5 ms and the “SCL (sinus cycle length)” value amounted to 141.3 ± 30.9 ms. Further, in test [3] (Tbx5^minKCreERT2 mice (n = 3)), the “AH (AtrioHisian interval)” value is 35.7 ± 3.6 ms, the “HV (Hisioventricular interval)” value is listed as 26.0 ± 2.4 ms, the “Hd (His interval duration)” value is recorded as 11.7 ± 2.5 ms and the “SCL (sinus cycle length)” value stood at 146.3 ± 11.6 ms. In test [3] (Tbx5^minKCreERT2 or Tbx5^fl/fl mice, EP studies), the “Effect of cholinergic blockade on conduction” value is “did not result in accelerated conduction”. The “Effect on sinus bradycardia following scruffing” value in test [4] is reported as “blocked”.
